The values that follow are results of earlier work, collected in PMC9112550, “Optimization of the antimicrobial peptide Bac7 by deep mutational scanning” (BMC Biology, 2022).

The test system of the data set is Salmonella typhimurium. The note with it: 30 mg kg^−1, mice infected with Salmonella typhimurium intraperitoneally. The source says: Lastly, it is hard to judge if the activity increase of Bac7PS compared to Bac7_1-23 measured in vitro can be translated to in vivo experiments. […] In our study, all untreated mice already ...

As for “Bac7_1-35: Bac7_1-35 (35 amino acid long) (RRIRPRPPRLPRPRPRPLPFPRPGPRPIPRPLPFP; Bactenecin-7; UniProt P19661 131-165, looked up, fragment)”, the efficacy is listed as 36%. For the same substance, under “untreated control 10 days”, the mean survival is recorded as 24.5 days.
